Data on 20 compounds can be found in US20130203756A1, “ISOINDOLINE PDE10 INHIBITORS” (priority 2010, published 2013).

In this experiment the target is T1, human PDE10A2 (Homo sapiens, UniProt Q9Y233).
T1 construct: made in house; host or cells: AD293 cells, transient transfection; cytosolic supernatant of the sonicated lysate used as enzyme
T1 sequence (Q9Y233 267-1055): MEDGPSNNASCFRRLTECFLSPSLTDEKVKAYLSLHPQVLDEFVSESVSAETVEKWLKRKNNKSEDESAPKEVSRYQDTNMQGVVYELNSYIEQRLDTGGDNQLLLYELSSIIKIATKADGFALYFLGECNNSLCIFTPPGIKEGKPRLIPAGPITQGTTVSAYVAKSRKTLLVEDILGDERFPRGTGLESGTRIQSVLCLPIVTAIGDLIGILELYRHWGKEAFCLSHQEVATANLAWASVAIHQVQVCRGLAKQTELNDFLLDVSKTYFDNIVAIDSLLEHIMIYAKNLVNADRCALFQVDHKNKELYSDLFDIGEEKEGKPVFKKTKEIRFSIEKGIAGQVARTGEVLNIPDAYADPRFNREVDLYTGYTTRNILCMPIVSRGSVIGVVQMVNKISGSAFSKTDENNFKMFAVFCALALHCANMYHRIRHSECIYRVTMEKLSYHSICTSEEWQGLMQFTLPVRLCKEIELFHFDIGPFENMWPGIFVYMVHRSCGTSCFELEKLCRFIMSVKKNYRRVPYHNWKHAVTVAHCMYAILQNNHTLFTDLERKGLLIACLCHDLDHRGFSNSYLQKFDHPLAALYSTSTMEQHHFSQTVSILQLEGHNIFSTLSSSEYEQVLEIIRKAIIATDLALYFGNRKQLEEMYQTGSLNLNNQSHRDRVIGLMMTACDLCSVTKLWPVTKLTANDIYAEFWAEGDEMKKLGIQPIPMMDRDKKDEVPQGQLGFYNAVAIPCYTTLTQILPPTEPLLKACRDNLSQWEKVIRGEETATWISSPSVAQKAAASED
The experiment in a line: PDE10 inhibitory activity, IMAP fluorescence polarization (FP) assay. The experiment is classed as biochemical. Conditions: apparent inhibition constant, FAM-labeled cAMP 50 nM, room temperature, read-out: PDE10A Ki. As to the method: The activity of the compounds in accordance with the present invention as PDE10 inhibitors may be readily determined without undue experimentation using a fluorescence polarization (FP) methodology that is well known in the art (Huang, W., et al., J. Biomol Screen, 2002, 7: 215).
In a typical experiment the PDE 10 inhibitory activity of the compounds of the present invention was determined in accordance with the following experimental method. PDE10A2 was amplified from human fetal brain cDNA (Clontech, Mountain View, Calif.) using a forward primer corresponding to nucleotides 56-77 of human PDE10A2 (Accession No. AF127480, Genbank Identifier 4894716), containing a Kozak consensus sequence, and a reverse primer corresponding to nucleotides 2406-2413 of human PDE10A2 (Accession No. AF127480, Genbank Identifier 4894716). Amplification with Easy-A polymerase (Stratagene, La Jolla, Calif.) was 95° C. for 2 minutes followed by thirty three cycles of 95° C. for 40 seconds, 55° C. for 30 seconds, and 72° C. for 2 minutes 48 seconds. Final extension was 72° C. for 7 minutes. The PCR product was TA cloned into pcDNA3.2-TOPO (Invitrogen, Carlsbad, Calif.) according to standard protocol. AD293 cells with 70-80% confluency were transiently transfected with human PDE10A2/pcDNA3.2-TOPO using Lipofectamine 2000 according to manufacturer specifications (Invitrogen, Carlsbad, Calif.). Cells were harvested 48 hours post-transfection and lysed by sonication (setting 3, 10×5 sec pulses) in a buffer containing 20 mM HEPES, 1 mM EDTA and protease inhibitor cocktail (Roche). Lysate was collected by centrifugation at 75,000×g for 20 minutes. Supernatant containing the cytoplasmic fraction was used for evaluation of PDE10A2 activity. The fluorescence polarization assay for cyclic nucleotide phosphodiesterases was performed using an IMAP® FP kit supplied by Molecular Devices, Sunnyvale, Calif. (product #R8139). IMAP® technology has been applied previously to phosphodiesterase assays (Huang, W., et al., J. Biomol Screen, 2002, 7: 215). Assays were performed at room temperature in 384-well microtiter plates with an incubation volume of 20.2 μL. Solutions of test compounds were prepared in DMSO and serially diluted with DMSO to yield 8 μL of each of 10 solutions differing by 3-fold in concentration, at 32 serial dilutions per plate. 100% inhibition is determined using a known PDE10 inhibitor, which can be any compound that is present at 5,000 times its Ki value in the assay described as follows, such as papaverine (see Siuciak, et al. Neuropharmacology (2006) 51:386-396; Becker, et al. Behav Brain Res (2008) 186(2):155-60; Threlfell, et al., J Pharmacol Exp Ther (2009) 328(3):785-795), 2-{4-[pyridin-4-yl-1-(2,2,2-trifluoroethyl)-1H-pyrazol-3-yl]phenoxymethyl}quinoline succinic acid or 2-[4-(1-methyl-4-pyridin-4-yl-1H-pyrazol-3-yl)-phenoxymethyl]quinoline succinic acid (see Schmidt, et al. J Pharmacol Exp Ther (2008) 325:681-690; Threlfell, et al., J Pharmacol Exp Ther (2009) 328(3): 785-795), 0% of inhibition is determined by using DMSO (1% final concentrations).
A Labcyte Echo 555 (Labcyte, Sunnyvale, Calif.) is used to dispense […] from each well of the titration plate to the 384 well assay plate. A solution of enzyme (1/1600 dilution from aliquots; sufficient to produce 20% substrate conversion) and a separate solution of FAM-labeled cAMP PDE from Molecular Devices (product #R7506), at a final concentration of 50 nM are made in the assay buffer (10 mM Tris HCl, pH 7.2, 10 mM MgCl2, 0.05% NaN3 0.01% Tween-20, and 1 mM DTT). The enzyme and the substrate are then added to the assay plates in two consecutive additions of 10 μL, and then shaken to mix. The reaction is allowed to proceed at room temperature for 30 minutes. A binding solution is then made from the kit components, comprised of 80% Solution A, 20% Solution B and binding reagent at a volume of 1/600 the total binding solution. […]
Background: Fluorescence polarisation rises when a labelled molecule tumbles more slowly, as on binding a larger partner.
Consider `Cc1ccc([C@@H]2C[C@H]2CN2Cc3c(cccc3-c3ncco3)C2=O)nc1` (single isomer, unassigned) [Compound 1-50, 2-{[(1S,2S) or (1R,2R)-2-(5-methylpyridin-2-yl)cyclopropyl]methyl}-4-(1,3-oxazol-2-yl)-2,3-dihydro-1H-isoindol-1-one], for which the Ki came to 0.61 nM.

With `Cc1ccc([C@@H]2C[C@H]2CN2Cc3c(cccc3-n3cccn3)C2=O)nc1` (single isomer, unassigned) [Compound 1-54, 2-{[(1S,2S) or (1R,2R)-2-(5-methylpyridin-2-yl)cyclopropyl]methyl}-4-(1H-pyrazol-1-yl)-2,3-dihydro-1H-isoindol-1-one], the Ki worked out at 0.86 nM. To `COc1ccc(-n2c(CCN3Cc4cccc(OC(C)C)c4C3=O)nc3ccccc3c2=O)cc1` (single isomer, unassigned) [Compound B-6, 3-(4-methoxyphenyl)-2-{2-[1-oxo-7-(propan-2-yloxy)-1,3-dihydro-2H-isoindol-2-yl]ethyl}quinazolin-4(3H)-one] belongs 2.9 nM; to `COc1ccc(-n2c(CCN3Cc4c(OC(C)C)cccc4C3=O)nc3ccccc3c2=O)cc1` (single isomer, unassigned) [Compound B-7, 3-(4-methoxyphenyl)-2-{2-[1-oxo-4-(propan-2-yloxy)-1,3-dihydro-2H-isoindol-2-yl]ethyl}quinazolin-4(3H)-one], 1.2 nM. To `O=C1c2cccc(-n3cccn3)c2CN1CCc1ccc2ccccc2n1` [Compound 1-17, 4-(1H-pyrazol-1-yl)-2-[2-(quinolin-2-yl)ethyl]-2,3-dihydro-1H-isoindol-1-one] belongs 0.46 nM; to `O=C1c2cccc(-c3cscn3)c2CN1CCc1nc2ccccc2cc1C1CC1` [Compound 1-27, 2-[2-(3-cyclopropylquinolin-2-yl)ethyl]-4-(1,3-thiazol-4-yl)-2,3-dihydro-1H-isoindol-1-one], 0.1 nM.

Regarding `O=C1c2cccc(-c3cscn3)c2CN1CCc1ccc2c(n1)CCCC2O` (centres unmarked) [Compound 1-28, 2-[2-(5-hydroxy-5,6,7,8-tetrahydroquinolin-2-yl)ethyl]-4-(1,3-thiazol-4-yl)-2,3-dihydro-1H-isoindol-1-one], the Ki came to 1.2 nM. Regarding `O=C1c2cccc(-c3ncco3)c2CN1CCc1ccc2c(n1)CCCC2O` (centres unmarked) [Compound 1-29, 2-[2-(5-hydroxy-5,6,7,8-tetrahydroquinolin-2-yl)ethyl]-4-(1,3-oxazol-2-yl)-2,3-dihydro-1H-isoindol-1-one], the Ki came out at 4.6 nM. To `O=C1c2cccc(-c3nccs3)c2CN1CCc1csc(-c2ccn[nH]2)n1` [Compound 1-40, 2-(2-(2-(1H-pyrazol-5-yl)thiazol-4-yl)ethyl)-4-(thiazol-2-yl)isoindolin-1-one] belongs 5.8 nM; to `COc1ccc(-n2c(CCN3Cc4c(Br)cccc4C3=O)nc3ccccc3c2=O)cc1` [Compound A-3, 2-[2-(4-bromo-1-oxo-1,3-dihydro-2H-isoindol-2-yl)ethyl]-3-(4-methoxyphenyl)quinazolin-4(3H)-one], 16 nM; to `COc1ccc(-n2c(CCN3Cc4c(cccc4-c4ncco4)C3=O)nc3ccccc3c2=O)cc1` [Compound A-4, 3-(4-methoxyphenyl)-2-{2-[4-(1,3-oxazol-2-yl)-1-oxo-1,3-dihydro-2H-isoindol-2-yl]ethyl}quinazolin-4(3H)-one], 0.19 nM. As for `COc1ccc(-c2cc3ccccc3nc2CCN2Cc3c(cccc3-c3ncco3)C2=O)cc1` [Compound C-5, 2-{2-[3-(4-methoxyphenyl)quinolin-2-yl]ethyl}-4-(1,3-oxazol-2-yl)-2,3-dihydro-1H-isoindol-1-one], the figure is 0.011 nM. As for `O=C1c2cccc(-n3cccn3)c2CN1CCc1ccc2ncccc2n1` [Compound D-4, 2-[2-(1,5-naphthyridin-2-yl)ethyl]-4-(1H-pyrazol-1-yl)-2,3-dihydro-1H-isoindol-1-one], the figure is 10.9 nM. In the case of `CC(CN1Cc2c(cccc2-c2ncco2)C1=O)c1cn2ccccc2n1` (centres unmarked) [Compound E-5, 2-[2-(imidazo[1,2-a]pyridin-2-yl)propyl]-4-(1,3-oxazol-2-yl)-2,3-dihydro-1H-isoindol-1-one], the Ki was determined as 5.7 nM. As for `O=C1c2cccc(-c3ncco3)c2CN1CCc1ccc2c(n1)CCCC2` [Compound F-6, 4-(1,3-oxazol-2-yl)-2-[2-(5,6,7,8-tetrahydroquinolin-2-yl)ethyl]-2,3-dihydro-1H-isoindol-1-one], the Ki is 2.3 nM. With `Cn1cc(-c2cccc3c2CN(CCc2ccc4ncccc4n2)C3=O)nn1` [Compound H-2, 4-(1-methyl-1H 1,2,3-triazol-4-yl)-2-[2-(1,5-naphthyridin-2-yl)ethyl]isoindolin-1-one], the Ki is 50 nM. To `O=C1c2cc(O)cc(Br)c2CN1CCc1ccc2ncccc2n1` [Compound I-4, 4-Bromo-6-hydroxy-2-[2-(1,5naphthyridin-2-yl)ethyl]isoindolin-1-one] belongs 17.2 nM.

For the compound `Cn1cc(CNc2cc3c(c(-c4ncco4)n2)CN(CCc2cn4ccccc4n2)C3=O)cn1` [Compound J-9], the Ki is 11.2 nM. As for `O=C1c2cccc(-c3cscn3)c2CN1CCc1csc(-c2ccn[nH]2)n1` [Compound K-4, 2-(2-(2-(1H-pyrazol-5-yl)thiazol-4-yl)ethyl)-4-(thiazol-4-yl)isoindolin-1-one], the figure is 0.31 nM; as for `O=C1c2cccc(-c3ncco3)c2CN1CC1CC1c1cn2ccccc2n1` (centres unmarked) [Compound M-6, 2-((2-(imidazo[1,2-a]pyridin-2-yl)cyclopropyl)methyl)-4-(oxazol-2-yl)isoindolin-1-one], 0.14 nM.
